Measured values published in PubChem BioAssay (NCI).
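In this assay, cells in 96-well plates receive the compound at five concentrations for 48 hours. Endpoints are linearly interpolated between the surrounding concentrations. Definition used: TGI = concentration required for complete inhibition of growth.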 Where a SMILES comes first, the peptide text is derived from it. The star is where a group is joined. Boc = CC(C)(C)OC(=O)*; OBn = c1ccc(CO*)cc1

Legend:
Test in all cases: inhibition of tumour cell growth, NCI panel, 48 h
U251 CNS = system: U251 CNS
UO-31 renal = system: UO-31 renal
OVCAR-5 ovarian = system: OVCAR-5 ovarian
OVCAR-4 ovarian = system: OVCAR-4 ovarian
SN12C renal = system: SN12C renal
CCRF-CEM leukemia = system: CCRF-CEM leukemia
HOP-92 NSCLC = system: HOP-92 NSCLC
MDA-MB-435 = system: MDA-MB-435
SK-OV-3 ovarian = system: SK-OV-3 ovarian
HT29 colon = system: HT29 colon

SMILES	TGI (U251 CNS) [µM]	TGI (UO-31 renal) [µM]	TGI (OVCAR-5 ovarian) [µM]	TGI (OVCAR-4 ovarian) [µM]	TGI (SN12C renal) [µM]	TGI (CCRF-CEM leukemia) [µM]	TGI (HOP-92 NSCLC) [µM]	TGI (MDA-MB-435) [µM]	TGI (SK-OV-3 ovarian) [µM]	TGI (HT29 colon) [µM]
O=c1c2cc(I)ccc2nc(Sc2ncccc2[N+](=O)[O-])n1Cc1ccccc1	> 100	> 100	> 100	> 100	> 100	> 100	77.6	> 100	> 100	> 100
[N-]=[N+]=CC(=O)OCC1SCCCS1	> 100	> 100	> 100	> 100	> 100	> 100	> 100	> 100	> 100	> 100
CC(NC(=O)C(NC(=O)OC(C)(C)C)C(C)C)C(=O)N1CCCC1C(=O)NCC(=O)NC(C(=O)NCC(=O)OCc1ccccc1)C(C)C (stereo not given) (Boc-VAPGVG-OBn; configuration not given here)	> 100	> 100	> 100	> 100	> 100	> 100	> 100	> 100	> 100	> 100
Cc1[nH]c2ccccc2c1C=Nc1ccc(N=Cc2c(C)[nH]c3ccccc23)cc1	> 100	> 100	> 100	> 100	> 100	47.6	> 100	51.7	> 100	> 100
O=c1[nH]nc(-c2ccccc2)n1/N=C/c1c(O)ccc2ccccc12	86.4	> 100	> 100	45.7	> 100	> 100	> 100	> 100	68.4	> 100
C=CCSC1=N/C(=C\c2ccccc2)C(=O)N1CC=C	> 100	> 100	> 100	> 100	> 100	49.8	> 78.1	> 100	> 100	> 66.8
O=c1c(C=Nc2ccc([N+](=O)[O-])cc2)c(O)n(-c2ccccc2)c(=O)n1-c1ccccc1	> 100	> 100	> 100	> 100	> 100	> 100	> 100	> 100	> 100	> 100
O=C1Cc2c([nH]c3ccc(Br)cc23)-c2ccccc2N1	> 100	> 100	> 100	> 100	> 100	> 100	> 100	> 100	> 100	> 100
Cc1nc2ccc(S(=O)(=O)O)cc2c(=O)n1-c1ccc(C(=O)NN2C(=O)C(Cl)C2c2ccccc2O)cc1 (stereo not given)	> 100	> 100	> 100	> 100	> 100	> 100	> 100	> 100	> 100	> 100
CN(C)CCNC(=O)c1cccc2nc3c(nc12)-c1ccccc1C3=O	45.6	39.1	90.1	58.2	28.9	17.4	40.9	32.1	97	22.8
N#Cc1c(N2CCCC2)ncn(Cc2ccccc2)c1=O	> 100	> 100	> 100	> 100	> 100	> 100	> 100	> 100	> 100	> 100
CC[C@H](C)[C@H]1NC(=O)[C@@H](NC(=O)[C@@H](CC(C)C)N(C)CC2CCCN2C(=O)C(C)=O)[C@@H](C)OC(=O)[C@H](Cc2ccc(OC)cc2)N(C)C(=O)C2CCCN2C(=O)[C@H](CC(C)C)NC(=O)[C@@H](C)C(=O)[C@H](C(C)C)OC(=O)C[C@@H]1O (stereo not given in full)	0.00534	0.0862	0.014	0.00687	0.0301	0.00404	0.0292	0.0105	0.0194	0.0065
Cc1cc(-c2nc3ccccc3s2)ccc1NC(=O)[C@H](C)N	33.9	19.1	19.1	26.2	27.9	24.1	35.5	19.9	28.5	28.7
COc1cc(CC2c3cc(OC)c(OC)cc3CCN2C)c(Oc2cc3c(cc2OC)-c2c(O)c(OC)cc4c2C(C3)N(C)CC4)cc1OC (stereo not given)	> 100	36.1	> 100	90.7	42	42.8	32.6	94.3	> 100	36.6
O=C(OCc1ccccc1)C1(N2CN(C3(C(=O)OCc4ccccc4)CCCC3)CN(C3(C(=O)OCc4ccccc4)CCCC3)C2)CCCC1	> 10	> 10	> 10	> 10	> 10	> 10	> 10	> 10	> 10	> 10
CCOC(=O)/C=C(/C(=O)OCC)n1cc(C)c(=O)n(Cc2cn(COCCOC(C)=O)nn2)c1=O	> 73.8	7.99	65	40	59.8	5.33	28.8	52.7	> 100	30.7
C=C(C)C(=O)[C@@]12C(=O)[C@@H](C)CC[C@H]1[C@H](C)C[C@@H]2C=C(C)C	49.6	43	55.2	> 100	40.7	> 100	> 100	54.3	> 100	34.8
O=C(c1ccccc1)c1ccc2nc(-c3c(Cl)c(Cl)c(Cl)c(Cl)c3C(=O)N/N=C/c3ccccc3)[nH]c2c1	> 100	> 100	> 100	83.5	60.8	> 100	> 100	90.8	> 100	> 100
O=C1c2c(nc3ccccc3c2-c2ccccc2)CN1Nc1ccccn1	> 100	51.6	> 100	> 100	> 100	> 100	> 79.4	> 100	> 100	> 100

SMILES	TGI (U251 CNS) [µM]	TGI (UO-31 renal) [µM]	TGI (OVCAR-5 ovarian) [µM]	TGI (OVCAR-4 ovarian) [µM]	TGI (SN12C renal) [µM]	TGI (CCRF-CEM leukemia) [µM]	TGI (HOP-92 NSCLC) [µM]	TGI (MDA-MB-435) [µM]	TGI (SK-OV-3 ovarian) [µM]	TGI (HT29 colon) [µM]
Fc1ccc(N=NN2CCCC2)cc1	> 100	> 100	> 100	> 100	> 100	> 100	> 100	> 100	> 100	> 100
C(=C\c1ccccc1)/C=N/c1nc2cc3sc(/N=C/C=C/c4ccccc4)nc3cc2s1	> 100	> 100	> 100	> 100	> 100	> 100	> 100	> 100	> 100	> 100
O=S1(=O)c2ccccc2C(=NO)c2ccccc21	> 100	> 100	> 100	> 100	> 100	> 100	> 100	> 100	> 100	> 100
COc1cc(/C=C2\N=C(c3ccccc3)N(c3nc4c(OC)ccc(OC)c4s3)C2=O)cc(OC)c1OC	> 100	> 100	> 100	> 100	> 100	> 100	> 100	> 100	> 100	> 100
CCOC(=O)/C=C(\C(=O)OCC)n1ccc(N)nc1=O	> 100	> 100	> 100	> 100	> 100	60.5	> 100	> 100	> 100	> 100
O=c1[nH]c(=O)n(Cc2ccccc2CO)cc1Sc1ccccc1	> 100	22.9	> 100	> 100	> 100	> 100	> 100	45.2	> 100	> 100
COC(=O)/C=C(/C(=O)OC)c1c(C)c(C)c2c(C)cc(C)cc(C)c1-2	> 100	> 100	> 100	> 100	> 100	> 100	> 100	> 100	76.8	34.3
NC(=S)Nc1[nH]c(=S)nc2c1SC1=N/C(=C\c3ccco3)C(=O)N12	> 100	> 100	> 100	> 100	> 100	> 85.4	> 100	> 100	> 100	> 100
NC(=O)c1ccc2c(c1)S(=O)(=O)c1ccccc1C2=O	> 100	> 100	> 100	> 100	> 100	> 100	> 100	> 100	> 100	> 100
COc1cccc(N(CN2CC=CC2=O)C(C)=O)c1	> 100	> 100	> 100	> 100	> 100	> 100	> 100	> 100	> 100	> 100
CNC(=O)c1cc(NC(=O)N(CCC#N)CCN(C(=O)N[C@@H](Cc2ccccc2)C(=O)N[C@@H](CC(C)C)C(=O)NC)c2ccccc2)ccc1OC	> 100	> 100	> 100	> 100	> 85.1	> 100	71.7	> 100	> 100	> 100
O=C1C(Br)=CC2(C=C1Br)CCNC1=C2C(=O)c2cccnc2C1=O	35.6	68.5	33.1	31.2	25.1	25.5	30.2	3.33	31.8	56.7
OC1(c2cc3ccccc3s2)CCCCC1	> 100	> 100	> 100	> 100	> 100	66.7	> 100	> 100	> 100	54.5
O=C(CCCCCCCCC(=O)N1C(=O)CC(=O)N(c2cccc(Cl)c2)C1=S)N1C(=O)CC(=O)N(c2cccc(Cl)c2)C1=S	> 100	> 100	> 100	> 100	> 100	> 100	51.1	> 100	> 100	> 100
O=[N+]([O-])c1ccc(N=Nc2c(O)c(S(=O)(=O)O)cc3cc(S(=O)(=O)O)ccc23)cc1	> 100	> 100	> 100	> 100	> 100	> 100	> 100	> 100	> 100	> 100
Cc1sc(/N=C/c2c[nH]c3ccccc23)c(C#N)c1C	96.4	> 100	> 100	> 100	> 100	58.3	> 100	> 100	> 100	> 100
CN(NC(=O)CCCl)C1=NCCCCN1	> 100	> 100	> 100	> 100	> 100	> 100	> 100	> 100	> 100	> 100
COC(OC)C1OC(CO)C(n2ccc(N)nc2=O)C1O (stereo not given)	> 100	> 100	> 100	> 100	> 100	> 100	> 100	> 100	> 100	> 100
